Data: patent US11161839B2, “2-quinolone derived inhibitors of BCL6” (Cancer Research Technology Limited, priority 2017, dated 2021)
Where two headings read alike, the source gives them in different places.

Target: human BCL6 BTB domain (Trx-6xHis-BCL6) (Homo sapiens (Human), UniProt P41182)
Assay: HTRF in vitro assay (BCL6 BTB domain / BCOR-AF633 peptide)
Format: binding
Settings: for IC50: read-out: HTRF pIC50 (converted)
[1] = further generated data (Table 1b), 1 nM Trx-6xHis-BCL6, 0.5 nM anti-6xHis-Terbium cryptate
[2] = initially generated data (Table 1a), 10 nM Trx-6xHis-BCL6, 1 nM anti-6xHis-Terbium cryptate

SMILES | HTRF pIC50 [1] | HTRF pIC50 [2] | other results
CC(Nc1cc(=O)n(C)c2ccc(Nc3nc(N4CCC5(CCCN(C)C5=O)CC4)ncc3Cl)cc12)c1ncccn1 (stereo not shown) [Example 17g, 9-(5-chloro-4-((1-methyl-2-oxo-4((1-(pyrimidin-2-yl)ethyl)amino)-1,2-dihydroquinolin-6-yl)amino)pyrimidin-2-yl)-2-methyl-2,9-diazaspiro[5.5]undecan-1-one] | 6.24 |  | 
CC(CCO)Nc1nc(=O)n(C)c2ccc(Nc3ccnc(Cl)c3C#N)cc12 (stereo not shown) [Example 1k, 2-chloro-4-[[4-[(3-hydroxy-1-methyl-propyl)amino]-1-methyl-2-oxo-quinazolin-6-yl]amino]pyridine-3-carbonitrile] | 5.95 | 6.19 | 
CCNc1cc(=O)n(C)c2ccc(Nc3cc(C(=O)NC)nc(Cl)c3C#N)cc12 [Example 5, 6-Chloro-5-cyano-4-[[4-(ethylamino)-1-methyl-2-oxo-6-quinolyl]amino]-N-methyl-pyridine-2-carboxamide] | 6.43 | 6.21 | 
CCNC(=O)C(C)Nc1cc(=O)n(C)c2ccc(Nc3ccnc(Cl)c3C#N)cc12 (racemic) [Example 3k, rac-2-((6-((2-Chloro-3-cyanopyridin-4-yl)amino)-1-methyl-2-oxo-1,2-dihydroquinolin-4-yl)amino)-N-ethylpropanamide] |  |  | IC50 [2]: 676 nM
CC(Nc1cc(=O)n(C)c2ncc(Nc3nc(N4CCC(F)(F)CC4)ncc3Cl)cc12)c1ncccn1 (stereo not shown) [Example 17b, 6-((5-chloro-2-(4,4-difluoropiperidin-1-yl)pyrimidin-4-yl)amino)-1-methyl-4-((1-(pyrimidin-2-yl)ethyl)amino)-4,/- naphthyridin-2(1H)-one] | 6.11 |  | 
COC1CCC(NC(=O)[C@@H](C)Nc2cc(=O)n(C)c3ccc(Nc4ccnc(Cl)c4C#N)cc23)CC1 (stereo partly drawn) [Example 3i, (R)-2-((6-((2-Chloro-3-cyanopyridin-4-yl)amino)-1-methyl-2-oxo-1,2-dihydroquinolin-4-yl)amino)-N-(4-methoxycyclohexyl)propanamide] | 6.42 | 6.36 | 
Cn1c(=O)cc(NC(C)(C)C)c2cc(Nc3cc(C(=O)O)nc(Cl)c3C#N)ccc21 [Example 9n, 4-((4-(tert-butylamino)-1-methyl-2-oxo-1,2-dihydroquinolin-6-yl)amino)-6-chloro-5-cyanopicolinic acid] | 6.84 |  | 
CCNc1cc(=O)n(C)c2ccc(Nc3cc(C(=O)O)nc(Cl)c3C#N)cc12 [Example 4, 6-Chloro-5-cyano-4-[[4-(ethylamino)-1-methyl-2-oxo-6-quinolyl]amino]pyridine-2-carboxylic acid] | 6.07 | 6.06 | 
CNC(=O)c1cc(Nc2ccc3c(c2)c(NC(C)(C)C)cc(=O)n3C)c(C#N)c(Cl)n1 [Example 7c, 4-((4-(tert-butylamino)-1-methyl-2-oxo-1,2-dihydroquinolin-6-yl)amino)-6-chloro-5-cyano-N-methylpicolinamide] | 6.33 |  | 
C[C@H](Nc1cc(=O)n(C)c2ccc(Nc3cc(C(=O)O)nc(Cl)c3C#N)cc12)C1CC1 [Example 9d, (S)-6-chloro-5-cyano-4-((4-((1-cyclopropylethyl)amino)-1-methyl-2-oxo-1,2-dihydroquinolin-6-yl)amino)picolinic acid] | 6.13 |  | 
Cn1c(=O)nc(NC(C)(C)c2ncccn2)c2cc(Nc3nc(N4CCC(F)(F)C(CO)C4)ncc3Cl)ccc21 (stereo not shown) [Example 12i, 6-((5-chloro-2-(4,4-difluoro-3-(hydroxymethyl)piperidin-1-yl)pyrimidin-4-yl)amino)-1-methyl-4-((2-(pyrimidin-2-yl)propan-2-yl)amino)quinazolin-2(1H)-one] | 7.32 |  | 
C[C@@H]1CN(c2cc(Nc3ccc4c(c3)c(N[C@H](C)C3CC3)cc(=O)n4C)c(Cl)cn2)C[C@H](C)O1 [Example 6h, 6-((5-chloro-2-((2S,6R)-2,6-dimethylmorpholino)pyridin-4-yl)amino)-4-(((R)-1-cyclopropylethyl)amino)-1-methylquinolin-2(1H)-one] | 6.00 |  | 
CCNC(=O)C(C)(C)Nc1cc(=O)n(C)c2ccc(Nc3ccnc(Cl)c3C#N)cc12 [Example 3h, 2-((6-((2-Chloro-3-cyanopyridin-4-yl)amino)-1-methyl-2-oxo-1,2-dihydroquinolin-4-yl)amino)-N-ethyl-2-methylpropanamide] | 6.41 | 6.40 | 
Cn1c(=O)cc(NC(C)(C)c2ncccn2)c2cc(Nc3cc(C(=O)N4CC(CC#N)C4)nc(Cl)c3C#N)ccc21 [Example 8h, 2-chloro-6-(3-(cyanomethyl)azetidine-1-carbonyl)-4-((1-methyl-2-oxo-4-((2-(pyrimidin-2-yl)propan-2-yl)amino)-1,2-dihydroquinolin-6-yl)amino)nicotinonitrile] | 7.68 |  | 
Cn1c(=O)cc(N[C@H]2CCOC2)c2cc(Nc3ccnc(Cl)c3C#N)ccc21 [Example 1g, 2-chloro-4-[[1-methyl-2-oxo-4-[[(3S)-tetrahydrofuran-3-yl]amino]-6-quinolyl]amino]pyridine-3-carbonitrile] | 6.13 | 6.10 | 
COc1ncc(Cl)c(Nc2ccc3c(c2)c(N[C@H](CO)C2CC2)cc(=O)n3C)n1 [Example 11f, (S)-6-((5-chloro-2-methoxypyrimidin-4-yl)amino)-4-((1-cyclopropyl-2-hydroxyethyl)amino)-1-methylquinolin-2(1H)-one] | 6.13 |  | 
Cc1nnc(C(C)Nc2cc(=O)n(C)c3ccc(Nc4ccnc(Cl)c4C#N)cc23)o1 (stereo not shown) [Example 3l, 2-Chloro-4-((1-methyl-4-((1-(5-methyl-1,3,4-oxadiazol-2-yl)ethyl)amino)-2-oxo-1,2-dihydroquinolin-6-yl)amino)nicotinonitrile] | 5.93 | 6.16 | 
COc1cc(Nc2ccc3c(c2)c(N[C@H](CO)C2CC2)cc(=O)n3C)c(Cl)cn1 [Example 15c, (S)-6-((5-chloro-2-methoxypyridin-4-yl)amino)4-4((1-cyclopropyl-2-hydroxyethyl)amino)-1-methylquinoline-2(1H)-one] |  |  | IC50 [1]: 575 nM
Cn1c(=O)cc(N[C@H]2C[C@H](O)C2)c2cc(Nc3ccnc(Cl)c3C#N)ccc21 [Example 1f, trans-2-chloro-4-[[4-[(3-hydroxycyclobutyl)amino]-1-methyl-2-oxo-6-quinolyl]amino]pyridine-3-carbonitrile] | 6.27 | 6.37 | 
C[C@@H](Nc1cc(=O)n(C)c2ccc(Nc3cc(N4CCC(C(=O)N(C)C)CC4)ncc3Cl)cc12)C1CC1 [Example 6i, (R)-1-(5-chloro-4-((4-((1-cyclopropylethyl)amino)-1-methyl-2-oxo-1,2-dihydroquinolin-6-yl)amino)pyridin-2-yl)-N,N-dimethylpiperidine-4-carboxamide] | 6.35 |  | 

Continued, in another order:

HTRF pIC50 [1] | HTRF pIC50 [2] | SMILES | other results
6.11 |  | CC(Nc1cc(=O)n(C)c2ccc(Nc3nc(N4CCc5nn(C)cc5C4)ncc3Cl)cc12)c1ncccn1 (stereo not shown) [Example 17k, 6-((5-chloro-2-(2-methyl-2,4,6,7-tetrahydro-5H-pyrazolo[4,3-c]pyridin-5-yl)pyrimidin-4-yl)amino)-1-methyl-4-((1-(pyrimidin-2-yl)ethyl)amino)quinolin-2(1H)-one] | 
6.01 | 6.31 | C[C@@H](CCO)Nc1cc(=O)n(C)c2ccc(Nc3ccnc(Cl)c3C#N)cc12 [Example 3n, (S)-2-Chloro-4-((4-((4-hydroxybutan-2-yl)amino)-1-methyl-2-oxo-1,2-dihydroquinolin-6-yl)amino)nicotinonitrile] | 
6.81 |  | CC(Nc1cc(=O)n(Cc2ccccc2)c2ccc(Nc3cc(C(=O)O)nc(Cl)c3C#N)cc12)c1ncccn1 (stereo not shown) [Example 9q, 4-((1-benzyl-2-oxo-4-((1-(pyrimidin-2-yl)ethyl)amino)-1,2-dihydroquinolin-6-yl)amino)-6-chloro-5-cyanopicolinic acid] | 
6.32 |  | COc1cc(Nc2ccnc(Cl)c2C#N)cc2c(NC(C)(C)c3ncccn3)cc(=O)n(C)c12 [Example 10r, 2-chloro-4-((8-methoxy-1-methyl-2-oxo-4-((2-(pyrimidin-2-yl)propan-2-yl)amino)-1,2-dihydroquinolin-6-yl)amino)nicotinonitrile] | 
6.38 | 6.40 | Cc1nc(C(C)Nc2cc(=O)n(C)c3ccc(Nc4ccnc(Cl)c4C#N)cc23)no1 (stereo not shown) [Example 1h, 2-chloro-4-[[1-methyl-4-[1-(5-methyl-1,2,4-oxadiazol-3-yl)ethylamino]-2-oxo-6-quinolyl]amino]pyridine-3-carbonitrile] | 
6.05 |  | CC(Nc1cc(=O)n(C)c2ccc(Nc3ncnc(Cl)c3Cl)cc12)c1ncccn1 (stereo not shown) [Example 19e, 6-((5,6-dichloropyrimidin-4-yl)amino)-1-methyl-4-((1-(pyrimidin-2-yl)ethyl)amino)quinolin-2(1H)-one] | 
6.30 |  | Cc1nccc(Nc2ccc3c(c2)c(NC(C)c2ncccn2)cc(=O)n3C)c1C#N (stereo not shown) [Example 18a, 2-methyl-4-((1-methyl-2-oxo-4-((1-(pyrimidin-2-yl)ethyl)amino)-1,2-dihydroquinolin-6-yl)amino)nicotinonitrile] | 
6.49 |  | Cc1cc(C)n(-c2ncc(Cl)c(Nc3ccc4c(c3)c(NC(C)c3ncccn3)cc(=O)n4C)n2)n1 (stereo not shown) [Example 14f, 6-((5-chloro-2-(3,5-dimethyl-1H-pyrazol-1-yl)pyrimidin-4-yl)amino)-1-methyl-4-((1-(pyrimidin-2-yl)ethyl)amino)quinolin-2(1H)-one] | 
6.29 | 6.27 | CC(Nc1cc(=O)n(C)c2ccc(Nc3ccnc(Cl)c3C#N)cc12)c1cnccn1 (stereo not shown) [Example 1j, 2-chloro-4-[[1-methyl-2-oxo-4-(1-pyrazin-2-ylethylamino)-6-quinolyl]amino]pyridine-3-carbonitrile] | 
